Literature values in patent publication US20090155357A1, “Alcohol Resistant Pharmaceutical Formulations” (priority 2005, published 2009).

Tests used:
[1] = solubility in alcohol
[2] = solubility in water

## [O]=[Mg] [Magnesium Oxide]
[1]
  Alcohol: I
[2]
  Water: I

## CCCCCCCCCCCCCCCC(=O)OCC(O)CO (stereo not shown) [Glyceryl Palmitate]
[1]
  Alcohol: I
[2]
  Water: I

## Glyceryl Behanate
[1]
  Alcohol: I
[2]
  Water: I

## CCCCCCCCCCCCCCCCCC(=O)OCC(O)CO (stereo not shown) [Glyceryl Monostearate]
[1]
  Alcohol: I
[2]
  Water: I

## Dibasic/Tribasic calcium phosphate dihydrate
[1]
  Alcohol: I
[2]
  Water: I
